Experimental data from patent US9873696B2, “Neprilysin inhibitors” (THERAVANCE BIOPHARMA R&D IP, LLC, priority 2010, dated 2018).

These compounds were tested against T1, human NEP (Homo sapiens, UniProt P08473) (assay: In vitro enzyme inhibition assay at human NEP (Assay 1)). Conditions: recombinant enzyme, fluorogenic peptide substrate, 37° C.
T1 construct: purchased R&D Systems, Minneapolis, Minn; 1182-ZN
T1 sequence (P08473 whole entry): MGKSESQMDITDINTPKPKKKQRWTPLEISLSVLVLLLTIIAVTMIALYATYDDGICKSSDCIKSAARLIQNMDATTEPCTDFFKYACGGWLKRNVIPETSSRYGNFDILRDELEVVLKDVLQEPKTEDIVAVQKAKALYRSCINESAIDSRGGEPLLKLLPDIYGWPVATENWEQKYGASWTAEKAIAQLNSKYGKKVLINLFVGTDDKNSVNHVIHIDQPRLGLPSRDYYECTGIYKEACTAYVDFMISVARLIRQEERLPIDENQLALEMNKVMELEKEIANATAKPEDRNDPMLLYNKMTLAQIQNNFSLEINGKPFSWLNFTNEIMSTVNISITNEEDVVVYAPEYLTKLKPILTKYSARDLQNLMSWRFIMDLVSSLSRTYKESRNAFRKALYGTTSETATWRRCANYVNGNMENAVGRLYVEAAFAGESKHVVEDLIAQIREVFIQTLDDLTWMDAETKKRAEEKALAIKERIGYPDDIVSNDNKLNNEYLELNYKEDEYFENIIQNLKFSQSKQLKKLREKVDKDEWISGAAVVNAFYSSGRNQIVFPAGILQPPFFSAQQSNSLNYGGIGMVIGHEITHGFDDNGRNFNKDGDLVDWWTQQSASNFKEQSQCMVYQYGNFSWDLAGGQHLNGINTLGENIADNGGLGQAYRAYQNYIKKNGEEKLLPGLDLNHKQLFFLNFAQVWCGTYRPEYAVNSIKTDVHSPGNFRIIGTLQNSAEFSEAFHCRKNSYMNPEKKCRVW
Type: biochemical
Procedure, shortened: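 Recombinant enzyme preincubated with compound 30 min at 37 °C, then 10 μM Mca-D-Arg-Arg-Leu-Dap-(Dnp)-OH added in 50 mM HEPES pH 7.5, 100 mM NaCl, 0.01% Tween-20, 10 μM ZnSO4; stopped after 20 min with acetic acid. Fluorescence read at 320/405 nm; Ki from nonlinear fit of v=v0/[1+(I/K′)], reported as pKi.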
Work on `N#Cc1cc(-c2cccc(Cl)c2)ccc1CN(C[C@@H](O)C(=O)O)NC(=O)c1cc(O)no1` [Example 10-2, (R)-3-[N-(3′-Chloro-3-cyano-biphenyl-4-ylmethyl)-N′-(3-hydroxy-isoxazole-5-carbonyl)-hydrazino]-2-hydroxy-propionic acid] yielded a Ki of 1.26 to 10 nM.
`O=C(NN(Cc1ccc(-c2cccc(Cl)c2)c(Cl)c1)C[C@@H](O)C(=O)O)c1cc(O)no1` [Example 10-3, (R)-3-[N-(2,3′-Dichloro-biphenyl-4-ylmethyl)-N′-(3-hydroxy-isoxazole-5-carbonyl)-hydrazino]-2-hydroxy-propionic acid] gave a Ki of no more than 1 nM.
`O=C(NN(Cc1ccc(-c2cccc(Cl)c2)c(F)c1)C[C@@H](O)C(=O)O)c1cc(O)no1` [Example 10-6, (R)-3-[N-(3′-Chloro-2-fluoro-biphenyl-4-ylmethyl)-N′-(3-hydroxy-isoxazole-5-carbonyl)-hydrazino]-2-hydroxy-propionic acid] was tested, and the Ki was no more than 1 nM.
`O=C(NN(Cc1ccc(-c2cc(Cl)ccc2F)cc1Cl)C[C@@H](O)C(=O)O)c1cc(O)no1` [Example 10-7, (R)-3-[N-(3,5′-Dichloro-2′-fluoro-biphenyl-4-ylmethyl)-N′-(3-hydroxy-isoxazole-5-carbonyl)-hydrazino]-2-hydroxy-propionic acid] gave a Ki of no more than 1 nM.
In the case of `O=C(NN(Cc1ccc(-c2cccc(Cl)c2)cc1F)C[C@@H](O)C(=O)O)c1nnn[nH]1` [Example 10-8, (R)-3-[N-(3′-Chloro-3-fluoro-biphenyl-4-ylmethyl)-N′-(1H-tetrazole-5-carbonyl)-hydrazino]-2-hydroxy-propionic acid], the Ki is reported as 1.26 to 10 nM.
In the case of `O=C(NN(Cc1ccc(-c2cccc(Cl)c2)cc1F)C[C@@H](O)C(=O)O)c1cn(O)nn1` [Example 10-9, (R)-3-[N-(3′-Chloro-3-fluoro-biphenyl-4-ylmethyl)-N′-(1-hydroxy-1H-[1,2,3]triazole-4-carbonyl)-hydrazino]-2-hydroxy-propionic acid], the Ki is reported as no more than 1 nM.
In the case of `O=C(NN(Cc1ccc(-c2cc(Cl)ccc2F)cc1Cl)C[C@@H](O)C(=O)O)c1c[nH]nn1` [Example 10-10, (R)-3-[N-(3,5′-Dichloro-2′-fluoro-biphenyl-4-ylmethyl)-N′-(1H-[1,2,3]triazole-4-carbonyl)-hydrazino]-2-hydroxy-propionic acid], the Ki is reported as no more than 1 nM.
Compound `O=C(NN(Cc1ccc(-c2cccc(Cl)c2)cc1Cl)C[C@@H](O)C(=O)O)c1c[nH]nn1` [Example 10-11, (R)-3-[N-(3,3′-Dichloro-biphenyl-4-ylmethyl)-N′-(1H-[1,2,3]triazole-4-carbonyl)-hydrazino]-2-hydroxy-propionic acid] has a Ki of no more than 1 nM.
